Source: US4758558A, “N-(substituted)-[7-(2-cyanoacetamido)cephalosporanic]amide derivatives having antibiotic utility” (priority 1982, dated 1988)

Columns and labels:
[1] = tested on: Pseudomonas aeruginosa; experiment: Effect on intestinal bacteria: number of Pseudomonas aeruginosa in feces; type: in vivo, ICR mice; conditions: 500 mg/kg/day
Procedure: (§1) Effects of the present compound on intestinal bacteria
(§2) Each of the present compounds respectively produced in Examples 1 to 18 was orally administered continuously for 2 days at a daily dose rate of 500 mg/kg body weight to each of five female ICR mice of each group after 6 weeks of their birth.
(§3) Each of the two fecal specimens respectively collected from each mouse before and after one day of the administration was diluted with 100 times by weight of an anaerobic diluent (a phosphoric acid buffer solution) and was ground in a mortar, and 0.1 ml of the thus ground material was smeared on each of the following culture media for the following bacteria, and the thus inoculated culture media were incubated under the following conditions. Thereafter, the number of the following bacteria in each of the thus cultured media was determined.
NAC agar 37° C., one day, […]

[2] = tested on: Staphylococcus aureus IAM 1011; experiment: Antibacterial activity in vitro (MIC) against Staphylococcus aureus; type: cell-based; conditions: IAM1011, Mueller-Hinton agar, 18 to 24 hours, 37° C., read-out: MIC (minimum growth inhibiting concentration) against Staphylococcus aureus
Procedure: (§4) (c) Anti-bacterial activity (in vitro):
(§5) Minimum concentration of the present compound inhibiting the growth of the following bacteria was determined according to the standard procedures of Japan Society of Chemotherapy:
Staphylococcus aureus IAM 1011
(§6) Determination of the antibacterial activity of the present compound produced in Examples 1 to 18, respectively was carried out according to the standard procedures of Japan Society of Chemotherapy for finding MIC (the minimum concentration of a specimen to inhibit the growth of a species of bacteria).
(§7) A series of diluted solutions of each of the present compound were mixed with 9 times by weight of Mueller-Hinton's culture medium as the culture medium for determining the sensitivity of a bacterial species, and flat agar culture plates were prepared by using the thus obtained mixture.
(§8) Each of the liquids respectively containing one of the bacterial species shown in Table 2 was smeared onto each of the thus prepared flat agar culture plates with a platinum loop, in length of about 2 cm, and the thus treated plates were incubated for 18 to 24 hours at 37° C. Thereafter, by observing the growth state of each bacterial species on the cultured plates, the minimum concentration of each compound completely inhibiting the growth of each bacterial species was found.

[3] = tested on: Lactobacillus bifidus; experiment: Effect on intestinal bacteria: number of Lactobacillus bifidus in feces; type: in vivo, ICR mice; conditions: 500 mg/kg/day
Procedure: (§9) (b) Effect on the intestinal bacterial colonies: […]
as §1, §2, §3
BS agar 37° C., 5 days, […]

[4] = tested on: a species of Bacteroides; experiment: Effect on intestinal bacteria: number of a sp. of Bacteroides in feces; type: in vivo, ICR mice; conditions: 500 mg/kg/day
Procedure: as §9, §1, §2, §3
a species of Bacteroides
NBGT agar 37° C., 5 days, […]

[5] = tested on: Escherichia coli IFO 12734; experiment: Antibacterial activity in vitro (MIC) against Escherichia coli; type: cell-based; conditions: IFO12734, Mueller-Hinton agar, 18 to 24 hours, 37° C., read-out: MIC (minimum growth inhibiting concentration) against Escherichia coli
Procedure: as §4, §5
Escherichia coli IFO 12734 and
as §6, §7, §8

[6] = tested on: a species of Lactobacillus; experiment: Effect on intestinal bacteria: number of a sp. of Lactobacillus in feces; type: in vivo, ICR mice; conditions: 500 mg/kg/day
Procedure: as §9, §1, §2, §3
a species of Lactobacillus
LBS agar 37° C., 5 days, […]

[7] = tested on: a species of Streptococcus; experiment: Effect on intestinal bacteria: number of a sp. of Streptococcus in feces; type: in vivo, ICR mice; conditions: 500 mg/kg/day
Procedure: as §9, §1, §2, §3
a species of Streptococcus
TATAC agar 37° C., one day, […]

[8] = tested on: Escherichia coli; experiment: Effect on intestinal bacteria: number of Escherichia coli in feces; type: in vivo, ICR mice; conditions: 500 mg/kg/day
Procedure: (b) Effect on the intestinal bacterial colonies:
[…] Each portion of the two kinds of the feces was cultured at 25° C. or 37° C. in a variety of culture medium for one to five days to see the state of Escherichia coli, Pseudomonas aeruginosa, a Streptococcus species, a Lactobacillus species, Lactobacillus bifidus and a Bacteroides species in the culture medium.
as §1
as §3, with “specimens respectively collected from each mouse before and after one day of the administration was diluted with 100 times” left out

[9] = after oral administration for 2 days, female ICR mice, before: 6.4
[10] = after oral administration for 2 days, female ICR mice, before: <3.0
[11] = after oral administration for 2 days, female ICR mice, before: 8.3
[12] = after oral administration for 2 days, female ICR mice, before: 8.2
[13] = after oral administration for 2 days, female ICR mice, before: 9.0
[14] = after oral administration for 2 days, female ICR mice, before: 6.8

SMILES | Number of Pseudomonas aeruginosa after the administration ([1]; mouse, in vivo, po) | MIC [2] [µg/mL] | Number of Lactobacillus bifidus after the administration ([3]; mouse, in vivo, po) | Number of a sp. of Bacterioides after the administration ([4]; mouse, in vivo, po) | MIC [5] [µg/mL] | Number of a sp. of Lactobacillus after the administration ([6]; mouse, in vivo, po) | Number of a sp. of Streptococcus after the administration ([7]; mouse, in vivo, po) | Number of Escherichia coli after the administration [8, 9] | Number of Escherichia coli after the administration ([8]; mouse, in vivo, po) | Number of Pseudomonas aeruginosa after the administration [1, 10] | Number of Lactobacillus bifidus after the administration [3, 11] | Number of a sp. of Bacterioides after the administration [4, 12] | Number of a sp. of Lactobacillus after the administration [6, 13] | Number of a sp. of Streptococcus after the administration [7, 14]
COC(=O)Cc1ccc(NC(=O)C2=C(C)CSC3C(NC(=O)[C@H](N)c4ccccc4)C(=O)N23)cc1 (stereo partly drawn) [Example 4, N-(4-carbomethoxymethylphenyl)-[7-(D-alpha-aminophenylacetamido)desacetoxycephalosporanic]amide] | < 3.0 Log10 (number of bacteria/g feces) | ≥ 100 | 8.3 Log10 (number of bacteria/g feces) | 8.3 Log10 (number of bacteria/g feces) | ≥ 100 | 8.9 Log10 (number of bacteria/g feces) | 6.8 Log10 (number of bacteria/g feces) | 6.6 Log10 (number of bacteria/g feces) |  |  |  |  |  | 
Cc1nnc(SCC2=C(C(=O)O)N3C(=O)[C@@H](NC(=O)Cn4cnnn4)[C@H]3SC2)s1 [SODIUM CEFAZORIN, reference compound] | < 3.0 Log10 (number of bacteria/g feces) |  | 9.1 Log10 (number of bacteria/g feces) | 7.3 Log10 (number of bacteria/g feces) |  | 4.0 Log10 (number of bacteria/g feces) | 8.6 Log10 (number of bacteria/g feces) |  | 8.9 Log10 (number of bacteria/g feces) |  |  |  |  | 
CC(=O)OCC1=C(C(=O)Nc2ccc(C(N)=O)cn2)N2C(=O)C(NC(=O)CSc3ccncc3)C2SC1 (stereo not shown) [Example 6, N-(nicotinamido)-[7-(4-pyridylthioacetamido)cephalosporanic acid]amide] | < 3.0 Log10 (number of bacteria/g feces) | ≥ 100 | 8.6 Log10 (number of bacteria/g feces) | 8.7 Log10 (number of bacteria/g feces) | ≥ 100 | 9.0 Log10 (number of bacteria/g feces) | 6.7 Log10 (number of bacteria/g feces) | 6.7 Log10 (number of bacteria/g feces) |  |  |  |  |  | 
CC1=C(C(=O)O)N2C(=O)[C@@H](NC(=O)[C@H](N)c3ccccc3)[C@H]2SC1 [CEFALEXIN, 7(D-alpha-amino-alpha-phenylacetamido)-3-methyl-3-cephem-4-carboxylic aci, reference compound] |  |  |  |  |  |  |  | 9.2 Log10 (number of bacteria/g feces) |  | < 3.0 Log10 (number of bacteria/g feces) | 8.0 Log10 (number of bacteria/g feces) | 8.1 Log10 (number of bacteria/g feces) | 4.0 Log10 (number of bacteria/g feces) | 8.5 Log10 (number of bacteria/g feces)
CC(=O)OCC1=C(C(=O)O)N2C(=O)[C@@H](NC(=O)CSc3ccncc3)[C@H]2SC1 [CEPHAPIRIN, 7(4-pyridylthioacetamido)cephalosporanic acid, reference compound] |  |  |  |  |  |  |  | 9.0 Log10 (number of bacteria/g feces) |  | < 3.0 Log10 (number of bacteria/g feces) | 9.1 Log10 (number of bacteria/g feces) | 8.5 Log10 (number of bacteria/g feces) | 4.1 Log10 (number of bacteria/g feces) | 9.1 Log10 (number of bacteria/g feces)
CC(=O)OCC1=C(C(=O)O)N2C(=O)C(NC(=O)CC#N)C2SC1 (stereo not shown) [Compound X, sodium 7(2-cyanoacetamido)cephalosporanate, reference compound] | < 3.0 Log10 (number of bacteria/g feces) |  | 6.0 Log10 (number of bacteria/g feces) | 8.2 Log10 (number of bacteria/g feces) |  | 4.6 Log10 (number of bacteria/g feces) | 9.1 Log10 (number of bacteria/g feces) | 9.0 Log10 (number of bacteria/g feces) |  |  |  |  |  | 

The next lines start with results.

Number of Pseudomonas aeruginosa after the administration ([1]; mouse, in vivo, po) | MIC [2] [µg/mL] | Number of Lactobacillus bifidus after the administration ([3]; mouse, in vivo, po) | Number of a sp. of Bacterioides after the administration ([4]; mouse, in vivo, po) | MIC [5] [µg/mL] | Number of a sp. of Lactobacillus after the administration ([6]; mouse, in vivo, po) | Number of a sp. of Streptococcus after the administration ([7]; mouse, in vivo, po) | Number of Escherichia coli after the administration [8, 9] | Number of Escherichia coli after the administration ([8]; mouse, in vivo, po) | SMILES | Number of Pseudomonas aeruginosa after the administration [1, 10] | Number of Lactobacillus bifidus after the administration [3, 11] | Number of a sp. of Bacterioides after the administration [4, 12] | Number of a sp. of Lactobacillus after the administration [6, 13] | Number of a sp. of Streptococcus after the administration [7, 14]
< 3.0 Log10 (number of bacteria/g feces) | ≥ 12.5 | 8.2 Log10 (number of bacteria/g feces) | 8.4 Log10 (number of bacteria/g feces) | ≥ 100 | 9.0 Log10 (number of bacteria/g feces) | 6.6 Log10 (number of bacteria/g feces) | 6.4 Log10 (number of bacteria/g feces) |  | COC(=O)Cc1ccc(NC(=O)C2=C(CSc3nnc(C)s3)CSC3C(NC(=O)Cn4cnnn4)C(=O)N23)cc1 (stereo not shown) [Example 14, N-(4-carbomethoxymethylphenyl)-{7-(1-1H-tetrazolylacetamido)-3-[2-(5-methyl-1,3,4-thiadiazolyl)thiomethyl]-3-cephem-4-carboxylic}amide] |  |  |  |  | 
< 3.0 Log10 (number of bacteria/g feces) | ≥ 12.5 | 8.4 Log10 (number of bacteria/g feces) | 8.1 Log10 (number of bacteria/g feces) | ≥ 100 | 9.0 Log10 (number of bacteria/g feces) | 6.9 Log10 (number of bacteria/g feces) | 6.4 Log10 (number of bacteria/g feces) |  | Cc1nnc(SCC2=C(C(=O)Nc3ccc(C(N)=O)cn3)N3C(=O)C(NC(=O)Cn4cnnn4)C3SC2)s1 (stereo not shown) [Example 18, N-(6-nicotinic amide)-{7-(1-1h-tetrazolylacetamido)-3-[2-(5-methyl-1,3,4-thiadiazolyl)thiomethyl]-3-cepehem-4-carboxylic}amide] |  |  |  |  | 
< 3.0 Log10 (number of bacteria/g feces) | ≥ 12.5 | 8.3 Log10 (number of bacteria/g feces) | 8.1 Log10 (number of bacteria/g feces) | ≥ 100 | 9.2 Log10 (number of bacteria/g feces) | 6.5 Log10 (number of bacteria/g feces) | 6.5 Log10 (number of bacteria/g feces) |  | Cc1ccc(NC(=O)C2=C(CSc3nnc(C)s3)CSC3C(NC(=O)Cn4cnnn4)C(=O)N23)cc1 (stereo not shown) [Example 16, N-(4-methylphenyl)-{7-(1-1H-tetrazolylacetamido)-3-[2-(5-methyl-1,3,4-thiadiazolyl)thiomethyl]-3-cephem-4-carboxylic}amide] |  |  |  |  | 
